{"source": "the Kinase Knowledgebase extract (Sharma et al. 2016)", "note": "Several values for one entry are separate records, joined by “and”; a condition that tells them apart may be missing. Equal entries are not always repeated."}
{"biological_target": "PIK3CD (Human) (UniProt O00329)", "sequence (O00329 whole entry, looked up)": "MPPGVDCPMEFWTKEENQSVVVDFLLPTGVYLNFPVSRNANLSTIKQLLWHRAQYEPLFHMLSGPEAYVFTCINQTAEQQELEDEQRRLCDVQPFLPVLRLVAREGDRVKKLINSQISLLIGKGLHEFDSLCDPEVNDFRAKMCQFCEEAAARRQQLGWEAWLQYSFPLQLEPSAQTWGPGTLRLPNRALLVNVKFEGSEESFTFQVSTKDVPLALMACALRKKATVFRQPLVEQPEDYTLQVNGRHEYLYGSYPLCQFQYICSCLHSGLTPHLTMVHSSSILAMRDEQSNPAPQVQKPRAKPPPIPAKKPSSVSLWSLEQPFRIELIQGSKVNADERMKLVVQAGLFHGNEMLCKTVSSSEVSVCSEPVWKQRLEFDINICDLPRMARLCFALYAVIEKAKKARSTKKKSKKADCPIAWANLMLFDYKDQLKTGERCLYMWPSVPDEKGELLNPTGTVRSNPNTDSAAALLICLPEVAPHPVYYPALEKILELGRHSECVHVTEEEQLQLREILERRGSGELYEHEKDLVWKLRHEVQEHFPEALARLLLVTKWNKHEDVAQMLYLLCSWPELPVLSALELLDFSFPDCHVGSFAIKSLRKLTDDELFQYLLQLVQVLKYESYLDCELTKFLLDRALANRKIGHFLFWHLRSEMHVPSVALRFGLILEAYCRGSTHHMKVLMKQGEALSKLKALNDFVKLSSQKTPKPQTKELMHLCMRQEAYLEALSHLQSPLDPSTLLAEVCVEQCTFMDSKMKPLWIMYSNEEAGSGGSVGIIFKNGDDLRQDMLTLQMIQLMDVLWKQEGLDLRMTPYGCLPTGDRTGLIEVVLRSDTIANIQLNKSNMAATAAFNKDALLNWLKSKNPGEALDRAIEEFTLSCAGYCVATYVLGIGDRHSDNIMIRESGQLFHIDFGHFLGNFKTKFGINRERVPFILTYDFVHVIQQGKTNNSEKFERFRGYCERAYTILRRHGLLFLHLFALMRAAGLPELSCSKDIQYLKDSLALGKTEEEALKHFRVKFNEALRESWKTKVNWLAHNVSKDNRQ", "experiment": "Enzyme Assay"}
{"smiles": "CCn1ncc(-c2nc3c(O[C@H]4CCN(C(=O)c5ncoc5C)C4)ncnc3n2C)c1C", "IC50": "7.2 nM"}
{"smiles": "CCn1c(-c2cnc(C)nc2)nc2c(O[C@H]3CCN(C(=O)N4CCC4)C3)ncnc21", "IC50": "1.3 nM"}
{"smiles": "CCn1ncc(-c2nc3c(O[C@H]4CCN(c5ncnc6sc(C)cc56)C4)ncnc3n2C)c1C", "IC50": "5.2 nM"}
{"smiles": "CCn1ncc(-c2nc3c(O[C@H]4CCN(c5ncnc6sccc56)C4)ncnc3n2C)c1C", "IC50": "5.7 nM"}
{"smiles": "CCn1ncc(-c2nc3c(O[C@H]4CCN(C(=O)c5ccnc(C)c5)C4)ncnc3n2C)c1C", "IC50": "25 nM"}
{"smiles": "CCn1ncc(-c2nc3c(O[C@H]4CCN(S(=O)(=O)c5ccccc5)C4)ncnc3n2C)c1C", "IC50": "360 nM"}
{"smiles": "CCn1ncc(-c2nc3c(O[C@H]4CCN(C(=O)c5conc5C)C4)ncnc3n2C)c1C", "IC50": "14 nM"}
{"smiles": "CCn1c(-c2cnc(OC)c(F)c2)nc2c(O[C@H]3CCN(C(=O)C4CC(F)(F)C4)C3)ncnc21", "IC50": "< 1 nM"}
{"smiles": "CCn1c(-c2cnn3c2CCCC3)nc2c(O[C@H]3CCN(C(=O)C(C)C)C3)ncnc21", "IC50": "< 1 nM"}
{"smiles": "CCn1ncc(-c2nc3c(O[C@@H]4CC[C@H](NC(=O)C5CCOCC5)C4)ncnc3n2C)c1C", "IC50": "290 nM"}
{"smiles": "CCn1c(-c2cnc(C)nc2)nc2c(OC3(C)CCN(C(=O)C4CC4)C3)ncnc21", "note": "(stereo not given)", "IC50": "8.7 nM"}
{"smiles": "CCn1ncc(-c2nc3c(O[C@H]4CCN(C(=O)c5ocnc5C)C4)ncnc3n2C)c1C", "IC50": "15 nM"}
{"smiles": "CCn1c(-c2cnc(OC)c(C)c2)nc2c(O[C@H]3CCN(C(=O)OC(C)(C)C)C3)ncnc21", "IC50": "0.7 nM"}
{"smiles": "CCn1c(-c2cnc(C)nc2)nc2c(O[C@H]3CCN(C(=O)c4cocn4)C3)ncnc21", "IC50": "14 nM"}
{"smiles": "CCC(=O)N1CC[C@H](Oc2ncnc3c2nc(-c2cnc(OC)c(F)c2)n3C)C1", "IC50": "9.3 nM"}
{"smiles": "CCn1c(-c2cnc(OC)c(C)c2)nc2c(O[C@H]3CCN(C(=O)C4CC4)C3)ncnc21", "IC50": "< 1 nM"}
{"smiles": "CCn1ncc(-c2nc3c(O[C@H]4CCN(c5ncnc6c5cnn6C)C4)ncnc3n2C)c1C", "IC50": "120 nM"}
{"smiles": "CCn1c(-c2cnc(C)nc2)nc2c(O[C@H]3CC[C@@H](NC(=O)C4CC4)CC3)ncnc21", "IC50": "120 nM"}
{"smiles": "CCn1c(-c2cnc(C)nc2)nc2c(O[C@H]3CCN(C(=O)C4CC4)C3)ncnc21", "IC50": "2.8 nM"}
{"smiles": "CCn1c(-c2cnc(C)nc2)nc2c(OC3CCC(NC(=O)C4CCOCC4)C3)ncnc21", "note": "(stereo not given)", "IC50": "170 nM"}
{"smiles": "CCn1c(-c2cnc(C)nc2)nc2c(O[C@H]3CCN(C(=O)N4CC(O)C4)C3)ncnc21", "IC50": "4.3 nM"}
{"smiles": "CCC(=O)N1CC[C@H](Oc2ncnc3c2nc(-c2cc(F)cc(NS(C)(=O)=O)c2)n3C)C1", "IC50": "10 nM"}
{"smiles": "CCn1ncc(-c2nc3c(O[C@H]4CCN(C(=O)CN5CCCC5=O)C4)ncnc3n2C)c1C", "IC50": "480 nM"}
{"smiles": "CCn1ncc(-c2nc3c(O[C@H]4CCN(C(=O)c5nnc(C)o5)C4)ncnc3n2C)c1C", "IC50": "31 nM"}
{"smiles": "CCn1c(-c2cnc(C)nc2)nc2c(O[C@H]3CCN(C(=O)OC(C)(C)C)C3)ncnc21", "IC50": "8.3 nM"}
{"smiles": "CCn1ncc(-c2nc3c(OC4CCN(C(=O)C5CCCCC5)C4)ncnc3n2C)c1C", "note": "(stereo not given)", "IC50": "22 nM"}
{"smiles": "CCn1c(-c2cnc(C)nc2)nc2c(O[C@H]3CCN(C(=O)C4[C@@H](C)[C@@H]4C)C3)ncnc21", "note": "(stereo not given in full)", "IC50": "13 nM"}
{"smiles": "CCC(=O)N1CC[C@H](Oc2ncnc3c2nc(-c2cnc(C(C)(C)C)s2)n3CC)C1", "IC50": "2.2 nM"}
{"smiles": "CCn1c(-c2cnc(C)nc2)nc2c(O[C@H]3CCN(C(=O)C=C(C)C)C3)ncnc21", "IC50": "4.4 nM"}
{"smiles": "CCc1nc(C)c(C(=O)N2CC[C@H](Oc3ncnc4c3nc(-c3cnn(CC)c3C)n4C)C2)o1", "IC50": "12 nM"}
{"smiles": "CCn1c(-c2cnc(C)nc2)nc2c(O[C@H]3C[C@H](NS(=O)(=O)CC)C3)ncnc21", "IC50": "150 nM"}
{"smiles": "CCn1ncc(-c2nc3c(O[C@H]4CCN(c5ncnc6sc(C)c(C)c56)C4)ncnc3n2C)c1C", "IC50": "19 nM"}
{"smiles": "CCC(=O)N1CC[C@H](Oc2ncnc3c2nc(C2CC2)n3C)C1", "IC50": "580 nM"}
{"smiles": "CCC(=O)N1CC[C@H](Oc2ncnc3c2nc(I)n3C)C1", "IC50": "140 nM"}
{"smiles": "CCn1ncc(-c2nc3c(O[C@H]4CCN(S(=O)(=O)c5ccc6ccccc6c5)C4)ncnc3n2C)c1C", "IC50": "220 nM"}
{"smiles": "CCn1c(-c2cnc(OC)c(F)c2)nc2c(O[C@H]3CCN(C(=O)C(C)C)C3)ncnc21", "IC50": "< 1 nM"}
{"smiles": "CC(=O)Nc1ccc(-c2nc3c(O[C@H]4CCN(C(=O)OC(C)(C)C)C4)ncnc3n2C)cc1", "IC50": "140 nM"}
{"smiles": "CCn1c(-c2cnc(C)nc2)nc2c(O[C@@H]3CN(C(=O)C4CC4)C[C@H]3OC)ncnc21", "IC50": "41 nM"}
{"smiles": "CCn1c(-c2cnc(C)nc2)nc2c(O[C@H]3C[C@@H](NC(=O)OC(C)(C)C)C3)ncnc21", "IC50": "96 nM and 220 nM"}
{"smiles": "Cn1c(-c2cnn3cccnc23)nc2c(O[C@H]3CCN(C(=O)OC(C)(C)C)C3)ncnc21", "IC50": "210 nM"}
{"smiles": "CCC(=O)N1CC[C@H](Oc2ncnc3c2nc(CC(C)C)n3CC)C1", "IC50": "240 nM"}
{"smiles": "CCn1c(-c2ccc(OC(F)(F)F)cc2)nc2c(O[C@H]3CCN(C(=O)C4CC4)C3)ncnc21", "IC50": "9.3 nM"}
{"smiles": "CCn1ncc(-c2nc3c(O[C@H]4CCN(C(=O)c5cn(C)nn5)C4)ncnc3n2C)c1C", "IC50": "5.2 nM"}
{"smiles": "CCn1c(-c2cnc(C)nc2)nc2c(O[C@H]3CCN(c4nccs4)C3)ncnc21", "IC50": "44 nM"}
{"smiles": "CCn1c(N(C)C(C)C)nc2c(O[C@H]3CCN(C(=O)OC(C)(C)C)C3)ncnc21", "IC50": "580 nM"}
